Tests used:
Assay type in all cases: physicochemical
[1] = Temperature and moisture stability study (HPLC impurity profile)
Procedure: A stability study was conducted on tosylate salt and mesylate salt of Compound 1, by monitoring changes in the high performance liquid chromatography (HPLC) impurity profiles for each salt when exposed to various temperatures and/or humidity conditions. Each sample was placed in a closed container and exposed to three controlled environments: refrigerated (5° C.), 20° C. and 60% relative humidity, and 40° C. and 75% relative humidity. […] The stability study of the crystalline tosylate salt was continued.
Samples were analyzed by the following reversed-phase HPLC impurity profile method at time points 0, 1, 2, 4 weeks (Table 7) and 3 months (Table 8) for the tosylate salt; and 0, 1 and 2 weeks for the mesylate salt (Table 9).
(§1) Reversed-phase HPLC analysis was conducted using a SYMMETRY SHIELD RP18 column (4.6×250 mm, 5 µm particle size), although analysis using a similar or equivalent column would be expected to yield similar results. The mobile phase components were 0.01 M ammonium acetate in water at pH 3.3 (A) and acetonitrile (B). The mobile phase composition was a gradient that increased from 6% to 15% B in five minutes, held at 15% B for 15 minutes, increased from 15% to 60% B in ten minutes, then from 60% to 90% B in two minutes, and then the system was re-equilibrated at 6% B for four minutes. The flow rate was 1.0 mL/minute, and the injection volume was 10.0 μL. The column temperature was maintained at 30° C. Detection was by ultraviolet light (UV) at 280 nm. The retention time for Compound 1 was approximately 15.7 minutes. The sample solution was prepared in mobile phase A to a final concentration of 2.0 mg/mL.

[2] = Photostability study (HPLC impurity profile)
Procedure: as §1
A photostability study was conducted on the tosylate salt of Compound 1. Two samples were prepared in clear glass Petri dishes. One sample was wrapped in aluminum foil to serve as a control sample. Both samples were placed in the ES 2000 Environmental Light 10 Chamber and exposed to 12 kilolux of cool white fluorescent light for a total of 47 hours.

[3] = Solubility of crystalline tosylate salt (excess solids, HPLC of supernatant); conditions: for Solubility: ambient temperature, two hours
Procedure: (§2) The solubilities were determined by mixing excess solids with solvent, at ambient temperature for two hours, followed by filtration of the supernatant. The supernatant concentration was determined by high-performance liquid chromatography (HPLC). […] The pH of 122.1 mg of the subject crystalline tosylate salt in 1.0 mL of water was determined to be 5.70.

[4] = Hygroscopicity by symmetric vapor sorption analyzer; conditions: 95% RH, 25.0° C.
Procedure: The hygroscopicity of the subject crystalline tosylate salt was determined using a symmetric vapor sorption analyzer, and reported as wt % gained as a function of percent relative humidity (% RH) from 5% to 95% to 1%, at 5% intervals at 25.0° C. A maximum weight gain of 12 wt % at 95% RH, with slight hysteresis upon desorption, was observed, and a 2 wt % loss due to IPA was observed.

[5] = Water content and room temperature stability of crystalline tosylate salt
Procedure: Upon drying, water content in the crystalline tosylate salt of Compound 1 was calculated to be 0.5%. After standing at room temperature for 24 hours, this value increased to 5%. In contrast to the amorphous Compound 1, the crystalline tosylate salt of Compound 1 was stable for weeks and months at room temperature, maintaining a water content of approximately 5%.

[6] = pH of crystalline tosylate salt in water; conditions: 122.1 mg in 1.0 mL of water
Procedure: as §2

[7] = Control sample wrapped in aluminum foil, 47 hours in light chamber
[8] = Exposed to 12 kilolux cool white fluorescent light, 47 hours
[9] = room temperature, weeks and months

## CN(C)c1cc(CNCC(C)(C)C)c(O)c2c1CC1CC3C(N(C)C)C(O)=C(C(N)=O)C(=O)C3(O)C(O)=C1C2=O.Cc1ccc(S(=O)(=O)O)cc1 (stereo not shown) [tosylate salt of Compound 1]
[1]; 0 month, 20° C. & 60% RH
  4-keto compound RRT = 1.57: 0.05%
  Beta-epimer RRT = 1.26: 1.76%
  Total impurity: 2.12%
[1]; 0 month, 40° C. & 75% RH
  4-keto compound RRT = 1.57: 0.05%
  Beta-epimer RRT = 1.26: 1.76%
  Total impurity: 2.12%
[1]; 1 week, 5° C.
  Compound 1: 98.5%
  RRT 0.52: 0.09%
  RRT 1.19: 0.21%
  RRT 1.26 (beta-epimer): 1.1%
  RRT 1.77: 0.11%
  Total Impurities: 1.51
[1]; 1 week, 20° C. & 60% RH
  Compound 1: 98.3%
  RRT 0.52: 0.09%
  RRT 1.19: 0.21%
  RRT 1.26 (beta-epimer): 1.2%
  RRT 1.77: 0.12%
  Total Impurities: 1.63
[1]; 1 week, 40° C. & 75% RH
  Compound 1: 98.2%
  RRT 0.52: 0.09%
  RRT 0.77: 0.05%
  RRT 1.19: 0.21%
  RRT 1.26 (beta-epimer): 1.3%
  RRT 1.77: 0.14%
  Total Impurities: 1.80
[1]; 2 weeks, 5° C.
  Compound 1: 98.4%
  RRT 0.52: 0.08%
  RRT 0.93: 0.08%
  RRT 1.19: 0.24%
  RRT 1.26 (beta-epimer): 1.1%
  RRT 1.77: 0.12%
  Total Impurities: 1.62
[1]; 2 weeks, 20° C. & 60% RH
  Compound 1: 98.4%
  RRT 0.52: 0.08%
  RRT 0.93: 0.08%
  RRT 1.19: 0.25%
  RRT 1.26 (beta-epimer): 1.1%
  RRT 1.77: 0.15%
  Total Impurities: 1.66
[1]; 2 weeks, 40° C. & 75% RH
  Compound 1: 98.3%
  RRT 0.52: 0.08%
  RRT 0.93: 0.09%
  RRT 1.19: 0.25%
  RRT 1.26 (beta-epimer): 1.1%
  RRT 1.77: 0.16%
  Total Impurities: 1.68
[1]; 3 month, 20° C. & 60% RH
  4-keto compound RRT = 1.57: 0.10%
  Beta-epimer RRT = 1.26: 1.74%
  M-2 impurity RRT = 0.84: 0.18%
  Total impurity: 2.86%
[1]; 3 month, 40° C. & 75% RH
  4-keto compound RRT = 1.57: 0.14%
  Beta-epimer RRT = 1.26: 1.66%
  M-2 impurity RRT = 0.84: 0.31%
  Total impurity: 3.12%
[1]; 4 weeks, 5° C.
  Compound 1: 98.3%
  RRT 0.52: 0.09%
  RRT 0.77: 0.08%
  RRT 0.93: 0.07%
  RRT 1.19: 0.23%
  RRT 1.26 (beta-epimer): 1.0%
  RRT 1.77: 0.14%
  Total Impurities: 1.61
[1]; 4 weeks, 20° C. & 60% RH
  Compound 1: 98.2%
  RRT 0.52: 0.10%
  RRT 0.77: 0.10%
  RRT 0.93: 0.12%
  RRT 1.19: 0.24%
  RRT 1.26 (beta-epimer): 1.1%
  RRT 1.77: 0.18%
  Total Impurities: 1.84
[1]; 4 weeks, 40° C. & 75% RH
  Compound 1: 98.1%
  RRT 0.52: 0.10%
  RRT 0.77: 0.17%
  RRT 0.93: 0.13%
  RRT 1.19: 0.26%
  RRT 1.26 (beta-epimer): 1.1%
  RRT 1.77: 0.20%
  Total Impurities: 1.96
[1]; Initial
  Compound 1: 98.4%
  RRT 0.52: 0.06%
  RRT 1.19: 0.24%
  RRT 1.26 (beta-epimer): 1.2%
  RRT 1.77: 0.10%
  Total Impurities: 1.60
[1]; after two weeks, 5° C., 20° C. & 60% RH, 40° C. & 75% RH
  relative stability among crystalline forms: most stable crystalline form
[1]; refrigerated and/or 20° C. & 60% RH, at least four weeks
  storage stability: stable
[2]; [7]
  Compound 1: 98.2%
  RRT 0.52: 0.06%
  RRT 0.77: 0.08%
  RRT 0.93: 0.12%
  RRT 1.19: 0.26%
  RRT 1.26: 1.2%
  RRT 1.77: 0.16%
[2]; [8]
  Compound 1: 98.2%
  RRT 0.52: 0.06%
  RRT 0.77: 0.09%
  RRT 0.93: 0.13%
  RRT 1.19: 0.26%
  RRT 1.26: 1.1%
  RRT 1.77: 0.16%
[3]; 56.8 mg in 0.5 mL water
  Equilibration in water (appearance): clear solutions
[3]; 122.1 mg in 1.0 mL water
  Equilibration in water (appearance): clear solutions
[3]; Acetonitrile
  Solubility: 5.9 mg/mL
[3]; IPA
  Solubility: 5.8 mg/mL
[3]; Methanol
  Solubility: 86.1 mg/mL
[3]; Water
  Solubility: >100 mg/mL
[4]
  maximum weight gain (hygroscopicity): 12 wt %
[5]; after standing at room temperature for 24 hours
  water content: 5%
[5]; [9]
  stability at room temperature: stable
  water content maintained: approximately 5%
[5]; upon drying
  water content: 0.5%
[6]
  pH: 5.70
